Measurements from ChEMBL document CHEMBL1177848, “Synthesis of novel 6,6a,7,8-tetrahydro-5H-naphtho[1,2-e]pyrimido[4,5-b][1,4]diazepines under microwave irradiation as potential anti-tumor agents” (2010).
The source made the active and inactive calls.

How the values were obtained:
Assay type in all cases: functional, cell-based
RPMI-8226 = assay: Growth inhibition of human RPMI8226 cells at 1 uM after 48 hrs by sulforhodamine B assay
SR = assay: Growth inhibition of human SR cells at 1 uM after 48 hrs by sulforhodamine B assay
CCRF-CEM = assay: Growth inhibition of human CCRF-CEM cells at 1 uM after 48 hrs by sulforhodamine B assay
HL-60 = assay: Growth inhibition of human HL-60(TB) cells at 1 uM after 48 hrs by sulforhodamine B assay
K562 = assay: Growth inhibition of human K562 cells at 1 uM after 48 hrs by sulforhodamine B assay
MOLT-4 = assay: Growth inhibition of human MOLT4 cells at 1 uM after 48 hrs by sulforhodamine B assay
EKVX = assay: Growth inhibition of human EKVX cells at 1 uM after 48 hrs by sulforhodamine B assay
HOP-92 = assay: Growth inhibition of human HOP92 cells at 1 uM after 48 hrs by sulforhodamine B assay
NCI-H226 = assay: Growth inhibition of human NCI-H226 cells at 1 uM after 48 hrs by sulforhodamine B assay
NCI-H23 = assay: Growth inhibition of human NCI-H23 cells at 1 uM after 48 hrs by sulforhodamine B assay
NCI-H460 = assay: Growth inhibition of human NCI-H460 cells at 1 uM after 48 hrs by sulforhodamine B assay
NCI-H522 = assay: Growth inhibition of human NCI-H522 cells at 1 uM after 48 hrs by sulforhodamine B assay
HOP-62 = assay: Growth inhibition of human HOP62 cells at 1 uM after 48 hrs by sulforhodamine B assay
NCI-H322M = assay: Growth inhibition of human […] cells at 1 uM after 48 hrs by sulforhodamine B assay
A549 = assay: Growth inhibition of human A549 cells at 1 uM after 48 hrs by sulforhodamine B assay
COLO 205 = assay: Growth inhibition of human COLO205 cells at 1 uM after 48 hrs by sulforhodamine B assay
HCT-116 = assay: Growth inhibition of human HCT116 cells at 1 uM after 48 hrs by sulforhodamine B assay
HCT-15 = assay: Growth inhibition of human HCT15 cells at 1 uM after 48 hrs by sulforhodamine B assay
HT-29 = assay: Growth inhibition of human HT-29 cells at 1 uM after 48 hrs by sulforhodamine B assay
KM12 = assay: Growth inhibition of human KM12 cells at 1 uM after 48 hrs by sulforhodamine B assay
SW-620 = assay: Growth inhibition of human SW620 cells at 1 uM after 48 hrs by sulforhodamine B assay
HCC 2998 = assay: Growth inhibition of human HCC2998 cells at 1 uM after 48 hrs by sulforhodamine B assay
SF-295 = assay: Growth inhibition of human SF295 cells at 1 uM after 48 hrs by sulforhodamine B assay
SF-539 = assay: Growth inhibition of human SF539 cells at 1 uM after 48 hrs by sulforhodamine B assay
U-251 = assay: Growth inhibition of human U251 cells at 1 uM after 48 hrs by sulforhodamine B assay
SF-268 = assay: Growth inhibition of human SF268 cells at 1 uM after 48 hrs by sulforhodamine B assay
SF530 = assay: Growth inhibition of human SF530 cells at 1 uM after 48 hrs by sulforhodamine B assay
SNB-75 = assay: Growth inhibition of human SNB75 cells at 1 uM after 48 hrs by sulforhodamine B assay
LOX IMVI = assay: Growth inhibition of human LOXIMVI cells at 1 uM after 48 hrs by sulforhodamine B assay
Malme-3M = assay: Growth inhibition of human MALME-3M cells at 1 uM after 48 hrs by sulforhodamine B assay
MDA-MB-435 = assay: Growth inhibition of human MDA-MB-435 cells at 1 uM after 48 hrs by sulforhodamine B assay
SK-MEL-5 = assay: Growth inhibition of human SK-MEL-5 cells at 1 uM after 48 hrs by sulforhodamine B assay
UACC-257 = assay: Growth inhibition of human UACC257 cells at 1 uM after 48 hrs by sulforhodamine B assay
UACC-62 = assay: Growth inhibition of human UACC62 cells at 1 uM after 48 hrs by sulforhodamine B assay
SK-MEL-2 = assay: Growth inhibition of human SK-MEL-2 cells at 1 uM after 48 hrs by sulforhodamine B assay
M14 = assay: Growth inhibition of human M14 cells at 1 uM after 48 hrs by sulforhodamine B assay
SK-MEL-28 = assay: Growth inhibition of human SK-MEL-28 cells at 1 uM after 48 hrs by sulforhodamine B assay
IGROV-1 = assay: Growth inhibition of human IGROV1 cells at 1 uM after 48 hrs by sulforhodamine B assay
OVCAR-3 = assay: Growth inhibition of human OVCAR-3 cells at 1 uM after 48 hrs by sulforhodamine B assay
OVCAR-4 = assay: Growth inhibition of human OVCAR4 cells at 1 uM after 48 hrs by sulforhodamine B assay
NCI/ADR-RES = assay: Growth inhibition of human NCI/ADR-RES cells at 1 uM after 48 hrs by sulforhodamine B assay
OVCAR-8 = assay: Growth inhibition of human OVCAR8 cells at 1 uM after 48 hrs by sulforhodamine B assay
A498 = assay: Growth inhibition of human A498 cells at 1 uM after 48 hrs by sulforhodamine B assay
ACHN = assay: Growth inhibition of human ACHN cells at 1 uM after 48 hrs by sulforhodamine B assay
CAKI-1 = assay: Growth inhibition of human Caki1 cells at 1 uM after 48 hrs by sulforhodamine B assay
RXF 393 = assay: Growth inhibition of human RXF393 cells at 1 uM after 48 hrs by sulforhodamine B assay
SN12C = assay: Growth inhibition of human SN12C cells at 1 uM after 48 hrs by sulforhodamine B assay
TK-10 = assay: Growth inhibition of human TK10 cells at 1 uM after 48 hrs by sulforhodamine B assay
UO-31 = assay: Growth inhibition of human UO31 cells at 1 uM after 48 hrs by sulforhodamine B assay
786-0 = assay: Growth inhibition of human 786-0 cells at 1 uM after 48 hrs by sulforhodamine B assay
PC-3 = assay: Growth inhibition of human PC3 cells at 1 uM after 48 hrs by sulforhodamine B assay
DU-145 = assay: Growth inhibition of human DU145 cells at 1 uM after 48 hrs by sulforhodamine B assay
MCF7 = assay: Growth inhibition of human MCF7 cells at 1 uM after 48 hrs by sulforhodamine B assay
MDA-MB-231 = assay: Growth inhibition of human MDA-MB-231 cells at 1 uM after 48 hrs by sulforhodamine B assay
BT-549 = assay: Growth inhibition of human BT549 cells at 1 uM after 48 hrs by sulforhodamine B assay
T47D = assay: Growth inhibition of human T47D cells at 1 uM after 48 hrs by sulforhodamine B assay
MDA-MB-468 = assay: Growth inhibition of human MDA-MB-468 cells at 1 uM after 48 hrs by sulforhodamine B assay
Hs-578T = assay: Growth inhibition of human Hs 578T cells at 1 uM after 48 hrs by sulforhodamine B assay

Measured: growth inhibition (GI)

Nc1ncnc2c1N=C1c3ccccc3CCC1C(c1ccccc1)N2 (stereo unspecified)
active: RPMI-8226 | SR | CCRF-CEM | HL-60 | K562 | MOLT-4 | EKVX | HOP-92 | NCI-H226 | NCI-H23 | NCI-H460 | NCI-H522 | HOP-62 | NCI-H322M | A549 | COLO 205 | HCT-116 | HCT-15 | HT-29 | KM12 | SW-620 | HCC 2998 | SF-295 | SF-539 | U-251 | SF-268 | SF530 | SNB-75 | LOX IMVI | Malme-3M | MDA-MB-435 | SK-MEL-5 | UACC-257 | UACC-62 | SK-MEL-2 | M14 | SK-MEL-28 | IGROV-1 | OVCAR-3 | OVCAR-4 | NCI/ADR-RES | OVCAR-8 | A498 | ACHN | CAKI-1 | RXF 393 | SN12C | TK-10 | UO-31 | 786-0 | PC-3 | DU-145 | MCF7 | MDA-MB-231 | BT-549 | T47D | MDA-MB-468 | Hs-578T

Nc1ncnc2c1N=C1c3ccccc3CCC1C(c1ccc(Cl)cc1)N2 (stereo unspecified)
active: RPMI-8226 | SR | CCRF-CEM | HL-60 | K562 | MOLT-4 | EKVX | HOP-92 | NCI-H226 | NCI-H23 | NCI-H460 | NCI-H522 | HOP-62 | NCI-H322M | A549 | COLO 205 | HCT-116 | HCT-15 | HT-29 | KM12 | SW-620 | HCC 2998 | SF-295 | SF-539 | U-251 | SF-268 | SF530 | SNB-75 | LOX IMVI | Malme-3M | MDA-MB-435 | SK-MEL-5 | UACC-257 | UACC-62 | SK-MEL-2 | M14 | SK-MEL-28 | IGROV-1 | OVCAR-3 | OVCAR-4 | NCI/ADR-RES | OVCAR-8 | A498 | ACHN | CAKI-1 | RXF 393 | SN12C | TK-10 | UO-31 | 786-0 | PC-3 | DU-145 | MCF7 | MDA-MB-231 | BT-549 | T47D | MDA-MB-468 | Hs-578T
